16 molecules from the Kinase Knowledgebase extract (Sharma et al. 2016) can be followed below.

Molecules are shown by their SMILES.

This assay deals with EGFR (human) (UniProt P00533). Conditions: huvec.
EGFR (human), sequence (P00533 whole entry, looked up): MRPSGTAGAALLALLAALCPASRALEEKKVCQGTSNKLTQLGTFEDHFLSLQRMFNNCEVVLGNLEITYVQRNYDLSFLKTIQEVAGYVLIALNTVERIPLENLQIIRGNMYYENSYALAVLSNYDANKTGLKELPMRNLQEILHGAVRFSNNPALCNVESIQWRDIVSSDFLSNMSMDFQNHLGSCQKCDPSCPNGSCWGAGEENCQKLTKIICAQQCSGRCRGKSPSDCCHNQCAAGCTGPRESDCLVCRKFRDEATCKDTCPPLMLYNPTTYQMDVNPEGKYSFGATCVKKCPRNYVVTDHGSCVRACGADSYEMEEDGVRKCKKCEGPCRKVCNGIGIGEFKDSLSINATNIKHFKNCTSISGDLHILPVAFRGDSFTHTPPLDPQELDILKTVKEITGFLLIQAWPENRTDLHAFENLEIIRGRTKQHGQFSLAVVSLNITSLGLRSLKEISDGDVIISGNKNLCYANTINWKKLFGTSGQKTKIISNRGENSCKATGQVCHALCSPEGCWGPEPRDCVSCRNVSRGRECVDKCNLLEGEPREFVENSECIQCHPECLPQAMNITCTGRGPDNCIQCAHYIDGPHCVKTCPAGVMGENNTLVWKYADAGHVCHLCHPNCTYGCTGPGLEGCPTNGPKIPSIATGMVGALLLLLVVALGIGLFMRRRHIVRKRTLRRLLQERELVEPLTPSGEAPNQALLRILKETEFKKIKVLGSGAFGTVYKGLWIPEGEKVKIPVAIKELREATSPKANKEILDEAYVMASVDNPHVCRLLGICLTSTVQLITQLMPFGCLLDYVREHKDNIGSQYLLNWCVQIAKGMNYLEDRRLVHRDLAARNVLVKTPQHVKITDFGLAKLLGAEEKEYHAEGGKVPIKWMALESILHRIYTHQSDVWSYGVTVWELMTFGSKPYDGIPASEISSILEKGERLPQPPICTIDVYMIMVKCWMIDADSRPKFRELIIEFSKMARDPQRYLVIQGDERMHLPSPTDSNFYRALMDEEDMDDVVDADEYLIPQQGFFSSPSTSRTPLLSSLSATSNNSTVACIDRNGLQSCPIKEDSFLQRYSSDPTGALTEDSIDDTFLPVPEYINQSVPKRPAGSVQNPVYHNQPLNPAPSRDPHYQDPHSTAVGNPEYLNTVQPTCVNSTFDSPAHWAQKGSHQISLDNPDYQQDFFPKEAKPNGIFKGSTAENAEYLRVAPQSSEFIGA
As for `COc1cc2c(Nc3ccc(Cl)cc3F)ncnc2cc1OC[C@@H]1CCCN(C)C1`, the IC50 turned out to be 150 nM.

On to `COc1cc2c(Nc3c(F)cc(Br)cc3F)ncnc2cc1OCC1CCNCC1`, for which the IC50 was found to be 400 nM.

The molecule `COc1cc2c(Nc3cc(O)c(C)cc3F)ncnc2cc1OCC1CCN(C)CC1` displayed an IC50 of 200 nM.

Turning to `COc1cc2c(Nc3ccc(Cl)cc3F)ncnc2cc1OCC1CCNCC1`, the IC50 came to 100 nM.

`COc1cc2c(Nc3ccc(C#N)cc3F)ncnc2cc1OC/C=C/CN1CCCC1` came in with an IC50 of 1400 nM.

Molecule `COc1cc2c(Nc3ccc(Br)cc3F)ncnc2cc1OCCCN1CCN(C)CC1` gave an IC50 of 90 nM.

The molecule `COc1cc2c(Nc3ccc(Cl)cc3F)ncnc2cc1OCCCN1CCN(C)CC1` registered an IC50 of 100 nM.

`COc1cc2c(Nc3c(F)cc(Cl)cc3F)ncnc2cc1OCC1CCNCC1` showed an IC50 of 600 nM.

`COc1cc2c(Nc3ccc(C)cc3F)ncnc2cc1OCC1CCNCC1` showed an IC50 of 450 nM.

With `COc1cc2c(Nc3ccc(C)cc3F)ncnc2cc1OCC1CCN(C)CC1`, the IC50 stood at 400 nM.

For `COc1cc2c(Nc3c(F)cc(Br)cc3F)ncnc2cc1OCC1CCN(C)CC1`, the IC50 is 400 nM.

With `COc1cc2c(Nc3ccc(Cl)cc3F)ncnc2cc1OCCC1CCN(C)CC1`, the IC50 was 200 nM.

With `COc1cc2c(Nc3ccc(Br)cc3F)ncnc2cc1OCC1CCNCC1`, the IC50 came to 100 nM.

With `COc1cc2c(Nc3cc(O)c(Cl)cc3F)ncnc2cc1OCC1CCN(C)CC1`, the IC50 was 70 nM.

Take `COc1cc2c(Nc3ccc(Br)cc3F)ncnc2cc1OC/C=C/CN1CCCC1`: the IC50 worked out at 90 nM.

In turn, `COc1cc2c(Nc3ccc(Cl)cc3F)ncnc2cc1OC/C=C/CN1CCCC1` returned an IC50 of 80 nM.
